Tests used:
[1] = biological target: T1, human FGFR3 wild type enzyme (cytoplasmic domain) (Homo sapiens, UniProt P22607); assay: FGFR3 wild type mobility shift assay (enzymatic assay); type: biochemical; conditions: 75 μM ATP, 50 minutes at 30° C., Caliper EZ reader II
T1 construct: human FGFR3 wild type enzyme (cytoplasmic domain, from Carna Biosciences)
Protocol: FGFR3 Wild Type Mobility Shift Assay (Enzymatic Assay)
(§1) In a final reaction volume of 25 μL, 0.04 ng/μL human FGFR3 wild type enzyme (cytoplasmic domain, from Carna Biosciences) was incubated with 75 μM ATP, 1 μM FL-peptide 30 substrate and 250 nL of testing compound (1% DMSO final) in assay buffer (100 mM HEPES pH 7.4, 10 mM MgCl2, 0.003% Brij35, 1 mM DTT). After incubation for 50 minutes at 30° C. the reaction was stopped with 10 μL of 0.5M EDTA pH 8.0, and then 25 μL of reaction mixture was transferred to reading plate and measured on Caliper EZ reader II.

[2] = biological target: T2, human FGFR3 V555M enzyme (cytoplasmic domain carrying V555M mutation) (Homo sapiens, UniProt P22607, V555M); assay: FGFR3 V555M mobility shift assay (enzymatic assay); type: biochemical; conditions: 30 μM ATP, 45 minutes at 30° C., Caliper EZ reader II
T2 construct: human FGFR3 V555M enzyme (cytoplasmic domain carrying V555M mutation, from Carna Biosciences)
T2 sequence (P22607 397-806 V555M): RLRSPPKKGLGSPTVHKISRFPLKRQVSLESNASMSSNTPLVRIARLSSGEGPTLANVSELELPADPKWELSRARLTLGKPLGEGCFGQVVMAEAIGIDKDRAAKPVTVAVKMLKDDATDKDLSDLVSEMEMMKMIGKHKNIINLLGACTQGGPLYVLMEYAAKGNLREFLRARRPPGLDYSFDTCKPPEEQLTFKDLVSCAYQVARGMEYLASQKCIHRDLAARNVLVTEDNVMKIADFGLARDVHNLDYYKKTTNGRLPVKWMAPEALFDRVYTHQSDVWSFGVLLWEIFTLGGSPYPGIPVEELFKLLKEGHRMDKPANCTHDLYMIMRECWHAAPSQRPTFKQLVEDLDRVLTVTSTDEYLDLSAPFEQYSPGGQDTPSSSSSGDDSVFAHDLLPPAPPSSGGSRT
Protocol: FGFR3 V555M Mobility Shift Assay (Enzymatic Assay)
as §1, with “FGFR3 V555M” for “FGFR3 wild type”, “(cytoplasmic domain carrying V555M mutation,” for “(cytoplasmic domain,”, “with 30” for “with 75”, “for 45” for “for 50”

[3] = biological target: T3, NIH/3T3 cells overexpressing FGFR3 WT-TACC3 fusion protein (Homo sapiens, UniProt P22607); assay: NIH/3T3 FGFR3 WT-TACC3 cell proliferation assay; type: cell-based; conditions: 72-hr incubation, CellTiter Glo; read-out: NIH/3T3 FGFR3 WT-TACC3 CTG (IC50)
T3 construct: fused on or other part: Q9Y6A5 (Transforming acidic coiled-coil-containing protein 3)
T3 sequence (P22607 whole entry, change not shown, the tested form may be a part): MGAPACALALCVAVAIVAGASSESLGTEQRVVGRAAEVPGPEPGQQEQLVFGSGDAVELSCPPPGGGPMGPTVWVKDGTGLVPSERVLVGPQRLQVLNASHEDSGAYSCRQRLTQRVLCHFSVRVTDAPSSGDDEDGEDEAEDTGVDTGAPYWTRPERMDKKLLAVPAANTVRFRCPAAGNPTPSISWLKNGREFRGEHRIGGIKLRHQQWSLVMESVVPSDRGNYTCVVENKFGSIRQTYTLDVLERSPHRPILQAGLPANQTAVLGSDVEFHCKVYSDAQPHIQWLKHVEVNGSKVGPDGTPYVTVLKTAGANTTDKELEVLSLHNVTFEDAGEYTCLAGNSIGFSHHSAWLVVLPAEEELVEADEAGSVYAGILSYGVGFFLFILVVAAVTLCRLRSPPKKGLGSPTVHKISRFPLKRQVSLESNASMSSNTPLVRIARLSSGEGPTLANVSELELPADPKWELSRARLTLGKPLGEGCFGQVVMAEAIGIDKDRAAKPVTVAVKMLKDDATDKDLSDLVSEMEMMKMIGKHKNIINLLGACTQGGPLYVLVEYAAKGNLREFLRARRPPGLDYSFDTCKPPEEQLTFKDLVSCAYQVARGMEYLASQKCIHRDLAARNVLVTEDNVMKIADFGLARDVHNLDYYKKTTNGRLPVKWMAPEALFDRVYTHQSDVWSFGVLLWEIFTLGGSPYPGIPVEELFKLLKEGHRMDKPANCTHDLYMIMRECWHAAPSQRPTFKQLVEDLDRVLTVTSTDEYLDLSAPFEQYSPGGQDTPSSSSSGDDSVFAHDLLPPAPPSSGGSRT
Protocol: NIH/3T3 FGFR3 WT-TACC3 Cell Proliferation Assay
(§2) In day 1, 90 μL of cell suspension (NIH/3T3 cells overexpressing FGFR3 WT-TACC3 fusion protein) (total 30,000 cells per well in growth medium (DMEM containing 1% Glutamax, 10% FBS and 1% Pen/Strep)) was seeded in a 96-well plate and then incubated overnight at 37° C. and 5% CO2. In day 2, 10 μL of growth medium containing 10-fold stock solution of testing compound was added into cell cultures (9 dose points with 4× serial dilution, starting with 10 μM, 0.1% DMSO final). After 72-hr incubation at 37° C. and 5% CO2, in day 5 a volume of 50 μL CellTiter Glo (CTG) reagent was added into cell-containing 96-well plate and the plate was incubated at room temperature for 10 minutes before RLUs (relative light unit) were measured on a microplate reader with luminescence detection module. The RLU value was normalized to survival % and concentration-response curve was plotted using Prism to calculate IC50 (M), pIC50 (−log IC50) and HillSlope value.

[4] = biological target: T4, NIH/3T3 cells overexpressing FGFR3 V555M-TACC3 fusion protein (Homo sapiens, UniProt P22607, V555M, cells depend on it); assay: NIH/3T3 FGFR3 V555M-TACC3 cell proliferation assay; type: cell-based; conditions: 72-hr incubation, CellTiter Glo; read-out: NIH/3T3 FGFR3 V555M-TACC3 CTG (IC50)
T4 construct: fused on or other part: Q9Y6A5 (Transforming acidic coiled-coil-containing protein 3)
T4 sequence (P22607 whole entry V555M, the tested form may be a part): as the sequence (P22607 whole entry, change not shown, the tested form may be a part) above, with V555M counted along it
Protocol: NIH/3T3 FGFR3 V555M-TACC3 Cell Proliferation Assay
as §2, with “V555M-TACC3” for “WT-TACC3”

T1 sequence (P22607 397-806): as the sequence (P22607 397-806 V555M) above, with M159V counted along it

Row | SMILES | IC50 [1] | IC50 [2] | GI50 [3] | GI50 [4]
1 | CC[C@H](Nc1c(-c2nc3ccc(OCCOC)cc3[nH]2)c(=O)[nH]c2cn(C)nc12)c1ncccn1 (single isomer, unassigned) [Compound 48, (S*)-6(6-(2-methoxyethoxy)-1H-benzol-2-yl)-2-methyl-7-((1-(pyrimidin-2-yl)propyl)amino)-2H-pyrazolo[4,3-b]pyridin-5(4H)-one] | 1.45 nM | 0.634 nM | 17.1 nM | 112 nM
2 | CCn1cc2[nH]c(=O)c(-c3nc4cc(OC)c(OC)cc4[nH]3)c(NC(C)c3cocn3)c2n1 (single isomer, unassigned) [Compound 5A, (S*)-6-(5,6-Dimethoxy-1H-benzo[d]imidazol-2-yl)-2-ethyl-7-((1-(oxazol-4-yl)ethyl)amino)-2H-pyrazolo[4,3-b]pyridin-5(4H)-one] | 7.67 nM | 1.56 nM | 33.6 nM | 50.4 nM
3 | COc1ccc2nc(-c3c(NC(C)c4ncccn4)c4nn(C)cc4[nH]c3=O)[nH]c2c1 (single isomer, unassigned) [Compound 1, (S*)-6-(6-Methoxy-1H-benzo[d]imidazol-2-yl)-2-methyl-7-((1-(pyrimidin-2-yl)ethyl)-amino)-2H-pyrazolo[4,3-b]pyridin-5(4H)-one] | 0.75 nM | 0.27 nM | 4.72 nM | 4.07 nM

The next lines start with the values.

Row | IC50 [1] | IC50 [2] | GI50 [3] | GI50 [4] | SMILES
4 | 4.82 nM | 1.14 nM | 40.2 nM | 31.2 nM | COc1cc2nc(-c3c(NC(c4ncccn4)C(C)C)c4nn(C)cc4[nH]c3=O)[nH]c2cc1OC (single isomer, unassigned) [Compound 27, (S*)-6-(5,6-dimethoxy-1H-benzo[d]imidazol-2-yl)-2-methyl-7-((2-methyl-1-(pyrimidin-2-yl)propyl)amino)-2H-pyrazolo[4,3-b]pyridin-5(4H)-one]
5 | 13.5 nM | 2.5 nM | 166 nM | 117 nM | CC(C)[C@H](Nc1c(-c2nc3cnccc3[nH]2)c(=O)[nH]c2cn(C)nc12)c1ncccn1 (single isomer, unassigned) [Compound 24, (S*)-6-(1H-imidazo[4,5-c]pyridin-2-yl)-2-methyl-7-((2-methyl-1-(pyrimidin-2-yl)propyl)amino)-2H-pyrazolo[4,3-b]pyridin-5(4H)-one]
6 | 6.77 nM | 1.05 nM | 67.1 nM | 50.7 nM | CC(C)C(Nc1c(-c2nc3cnc(N(C)C)cc3[nH]2)c(=O)[nH]c2cn(C)nc12)c1ncccn1 (single isomer, unassigned) [Compound 11, (S*)-6-(6-(dimethylamino)-1H-imidazo[4,5-c]pyridin-2-yl)-2-methyl-7-((2-methyl-1-(pyrimidin-2-yl)propyl)amino)-2H-pyrazolo[4,3-b]pyridin-5(4H)-one]
